Holding throughout (assay): DTP human tumour cell line panel, 48 h
The test system of experiment [1] is RXF-631 renal.
In experiment [2] the test system is DLD-1 colon.
Experiment [3] relates to DMS 273 small cell lung.
Experiment [4] relates to SNB-78 CNS.
In experiment [5] the test system is KM20L2 colon.
The test system of experiment [6] is HOP-18 NSCLC.
In experiment [7] the test system is M19-MEL melanoma.
Experiment [8] relates to MDA-N.
The subject of experiment [9] is XF 498 CNS.

Structures are written as SMILES. Where “and” joins values, the source holds several entries; their conditions need not be identical. Equal entries are not always repeated.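 Five compound concentrations were applied to cells in 96-well plates for 48 hours; endpoints were derived by simple linear interpolation of the resulting dose-response curve. GI50 = concentration required for 50% inhibition of growth. The concentration for full growth arrest is given as TGI.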 Where only a bound is given, the exact number is not on record here.

Usually TGI stands for the concentration at which net growth stops. Low values mean more potent growth arrest, high ones less potent growth arrest. As a reminder, the GI50 is the concentration at which growth is held to half of that of the control.

Consider `COc1ccc2c(c1OC)C(C=C(c1ccccc1)c1ccccc1)CN(C)C2` (stereo not drawn), for which the total growth inhibition concentration (TGI) in experiment [1] is 66.4 µM; in [2], 76.8 µM; in experiment [3], 34.9 µM; in experiment [4], over 100 µM; in [5], 35.5 µM; in experiment [6] it was 67.7 µM. The total growth inhibition concentration (TGI) in [7] is 81 µM.

In the case of `CCCCCN(CCCCC)C(=O)[C@H](CCC(=O)OCc1ccccc1)NC(=O)c1cc2ccccc2[nH]1`, the TGI in experiment [1], in [2], in [3], in [4], in [5] and in experiment [6] was over 100 µM in each case.

For `O=C(CC1SC(=Nc2ccccc2Cl)NC1=O)Nc1ccc(Cl)cc1` (stereo not drawn), the TGI in [2], in experiment [3], in experiment [4], in [5] and in experiment [7] was over 100 µM throughout.

Consider `[N-]=[N+]=NC1C2CC3CC(C2)CC1C3` (stereo not drawn), for which the TGI in experiment [1], in experiment [3], in [4], in [5], in [6] and in [7] was over 100 µM each time.

Consider `CC1=CC2=C(C#N)C(=O)OC2(C)C(c2ccccc2)C1` (stereo not drawn), for which, in experiment [8], the TGI is over 100 µM.

Turning to `COc1cc2ccc3c4cc(OC)c(OC(C)C)cc4c[n+](C)c3c2cc1OC`, the TGI was over 100 µM in [2], over 100 µM in [5], 88.6 µM in [6] and over 100 µM in experiment [7].

`CCCCCCC(O)C(O)CCC(O)C1CCC(CCCCC(O)CC2=CC(C)OC2=O)O1` (stereo not drawn): in [8], the GI50 is 12.3 µM and the TGI was determined as 29.1 µM.

Turning to `CCC(C)(C)NS(=O)(=O)c1ccccc1`, the TGI in [2], in experiment [3], in [4], in experiment [5], in experiment [9] and in [7] was over 100 µM each time.

Compound `NC(N)=NC(N)=Nc1ccc(S(N)(=O)=O)cc1` had a TGI in experiment [8] of over 100 µM.

In experiment [8], `CNC(=S)N(C1CCCCC1)C1CCCCC1` registered a TGI of over 100 µM.

In the case of `Clc1ccc(COC(Cn2ccnc2)c2ccc(Cl)cc2Cl)c(Cl)c1` (stereo not drawn), in experiment [8], the TGI is 17.5 µM and 15.6 µM.

Compound `CCOC(=O)C(=O)C(/C(=N/N(C)C)C(=O)Nc1ccc(C)cc1C)c1nc2ccccc2[nH]c1=O` (stereo not drawn) showed a concentration for total growth inhibition (TGI) in experiment [8] of over 100 µM.

Regarding `COc1cc(OC)cc(C(=O)Cc2c(C(=O)c3ccccc3)c3ccccc3n2C(=O)c2ccccc2)c1`, the total growth inhibition concentration (TGI) was over 100 µM in experiment [2]; over 100 µM in experiment [3]; over 100 µM in experiment [4]; over 100 µM in [5]; 73.6 µM in experiment [9]; over 100 µM in experiment [7].

In turn, `C[C@H](C(O)CC(=O)C(C)(C)O)[C@H]1CC[C@@]2(C)[C@@H]3CC[C@H]4C(C)(C)[C@@H](OC5OC(COC6OC(CO)C(O)C(O)C6O)C(O)C(O)C5O)CC[C@]4(C)C3=CC[C@]12C` (stereo partly drawn) had a TGI in experiment [8] of over 100 µM.

`CCC1(N)C(=O)OCc2c1cc1n(c2=O)Cc2cc3ccccc3nc2-1` (stereo not drawn): in experiment [8], the GI50 is 21.8 µM and the total growth inhibition concentration (TGI) is over 100 µM.

Consider `CN=C(N)NC`, for which the TGI in experiment [2], in [3], in experiment [4], in [5], in [9] and in experiment [6] was over 100 µM throughout. Moreover, in experiment [7], the TGI is over 100 µM.

Turning to `CC(=O)OC1(C#N)CC2OC1C1N=NN(C(=O)OC(C)(C)C)C21` (stereo not drawn), the TGI in [2] was over 31.6 µM; in experiment [3], over 100 µM; in [4], over 77 µM; in [5] it was over 100 µM; in experiment [9], over 100 µM; in [6], over 100 µM. Besides, in experiment [7], the TGI was over 100 µM.

Turning to `CC(C)c1cc(C(=O)[O-])c(O)c(C(C)C)c1.CC(C)c1cc(C(=O)[O-])c(O)c(C(C)C)c1.CC(C)c1cc(C(=O)[O-])c(O)c(C(C)C)c1.CC(C)c1cc(C(=O)[O-])c(O)c(C(C)C)c1.CC(C)c1cc(C(=O)[O-])c(O)c(C(C)C)c1.CC(C)c1cc(C(=O)[O-])c(O)c(C(C)C)c1.[Cu+2].[Mn+2].[Mn+2]`, the GI50 is 17.8 µM in experiment [2]; 22.4 µM in experiment [3]; 37 µM in experiment [4]; 26.1 µM in [5]; 30.2 µM in [9]; 13.3 µM in experiment [6]. Besides, the GI50 in experiment [7] is 5.67 µM. For the same compound, the total growth inhibition concentration (TGI) in experiment [2] was 35.9 µM; in [3], over 100 µM; in [4], over 100 µM; in [5], over 100 µM; in experiment [9] it was 71.5 µM; in experiment [6], 29.1 µM. Besides, the TGI in experiment [7] is 18.7 µM.

`CC(=O)Oc1cc(Cl)c(OC(C)=O)c2c(OC(C)=O)c(C)c(O[Si](C)(C)C(C)(C)C)cc12`: the TGI in [2] came to 3.92 µM; in experiment [3], 20 µM; in experiment [4], 9.82 µM; in experiment [5] it was 32.1 µM; in experiment [9], 32.8 µM.

On to `CCC(=O)Nc1ncnc2ncn(C(=O)CC)c12`, for which the total growth inhibition concentration (TGI) in experiment [8] was over 100 µM.

Regarding `COc1ccc(/C=C2\CCc3ccccc3C2=O)cc1OC`, the concentration for total growth inhibition (TGI) is 56.4 µM in [2]; over 100 µM in experiment [4]; over 100 µM in [5]; 56.5 µM in experiment [9]; over 100 µM in [6]; over 100 µM in experiment [7].

On to `COc1cc(=O)oc(/C=C/C=C/C=C/C(C)=C\C2(C)OC(C)C(C)(O)C2O)c1C` (stereo not drawn), for which the concentration for total growth inhibition (TGI) in experiment [8] was over 100 µM.

As to `C/C=C(\C)C(=O)N1c2ccccc2CC1c1c(C)[nH]c2ccccc12` (stereo not drawn), the TGI in experiment [1], in [2], in [3], in experiment [4], in experiment [5] and in experiment [7] was over 100 µM throughout.

Consider `CC(C)Cc1ccc(C(C)/C=C2\CCC(CN3CCCCC3)C2=O)cc1` (stereo not drawn), for which the TGI in experiment [2] stood at 5.13 µM; in experiment [3], 7.2 µM; in experiment [4] it was 35.1 µM; in [5], 29.1 µM; in [8], 12.8 µM; in [9], 16 µM. Also, the TGI in experiment [6] turned out to be 30.6 µM; in [7] it was 6.08 µM.

For the compound `N#CC(C(=O)O)C(c1c(Cl)cccc1Cl)C(C#N)C(=O)O` (stereo not drawn), the concentration for total growth inhibition (TGI) in experiment [8] is over 100 µM.

Take `CCN(CC)CCC(=O)N1C/C(=C/c2ccccc2)C(=O)/C(=C\c2ccccc2)C1`: the TGI in experiment [2] is 2.82 µM; in [3] it was 3.15 µM; in experiment [5] it was 3.5 µM; in experiment [8], 2.45 µM; in experiment [9] it was 7.57 µM; in experiment [6] it was 9.19 µM. The compound further gave a total growth inhibition concentration (TGI) in experiment [7] of 3.68 µM.

As for `CC1(C)OC2COC(c3[nH]nc4c(=O)[nH]c(=O)[nH]c34)C2O1` (stereo not drawn), the concentration for total growth inhibition (TGI) in experiment [8] was over 100 µM.

For the compound `COc1c(Cl)[c]([Hg][O]C(C)=O)c(NCC(C)=O)c(OC)[c]1[Hg][O]C(C)=O`, the GI50 in experiment [1] is 1.22 µM; in experiment [2], 12.2 µM; in [4], 15.9 µM; in [5], 28.3 µM; in experiment [7] it was 14.8 µM. In addition, the TGI in experiment [1] was 3.88 µM; in experiment [2], 26.8 µM; in experiment [4] it was 43.2 µM; in [5], over 100 µM; in experiment [7], 30.1 µM.

As to `S=C1SCN(C2CCCCCCCCCCC2)CN1C1CCCCCCCCCCC1`, the TGI in experiment [8] was over 100 µM.

For the compound `CCOc1ncnc2ccc(Cl)c(I)c12`, the TGI in [2], in experiment [3], in [5], in [9] and in experiment [7] was over 100 µM in each case.

As to `COc1ccc(C[C@H]2NC[C@H](O)[C@H]2OC(C)=O)cc1`, the concentration for total growth inhibition (TGI) in experiment [8] came to 0.195 µM.

Consider `OCCCCCNc1ccnc2cc(Cl)ccc12`, for which the concentration for total growth inhibition (TGI) in experiment [2], in experiment [3], in experiment [4], in experiment [5], in experiment [9] and in [6] was over 100 µM each time. The total growth inhibition concentration (TGI) in experiment [7] is over 100 µM.

Turning to `Cc1nc(-n2nc(-c3ccccc3)cc2-c2ccccc2)sc1C(=O)/C=C/c1ccc(Cl)cc1`, the total growth inhibition concentration (TGI) is 26.8 µM in experiment [2]; over 100 µM in experiment [3]; over 100 µM in experiment [4]; 77.6 µM in [5]; 29.6 µM in experiment [6]; 39.6 µM in experiment [7].

Turning to `CCOC(=O)c1csc(-c2nc(CCNC(=O)c3ccccc3)sc2Cl)n1`, the concentration for total growth inhibition (TGI) in experiment [8] is over 100 µM.

`Clc1nc(-c2ccccc2)nc(Cl)c1Cl` returned a total growth inhibition concentration (TGI) in experiment [8] of 26.6 µM.

Turning to `CC(C)C1NC(=O)[C@H](C)OC(=O)[C@@H](C(C)C)NC(=O)[C@@H](C)OC(=O)C(C(C)C)NC(=O)[C@H](C)OC1=O` (stereo partly drawn), the TGI in experiment [2], in experiment [3], in [4], in [5], in [9] and in [6] was over 100 µM in each case. The concentration for total growth inhibition (TGI) in [7] was over 100 µM.
